For 28 compounds, EC50 results are on record in patent US11110082B2, “Tyrosine kinase inhibitors” (Rigel Pharmaceuticals, Inc., priority 2016, dated 2021).

Molecules are shown by their SMILES.

This assay has as its target T1, MerTK (Homo sapiens, UniProt Q12866).
T1 construct: Seed HUVECs (10K cells/well) in EBM-2 complete media; host or cells: HUVEC (primary human umbilical vein endothelial cells)
T1 sequence (Q12866 21-999): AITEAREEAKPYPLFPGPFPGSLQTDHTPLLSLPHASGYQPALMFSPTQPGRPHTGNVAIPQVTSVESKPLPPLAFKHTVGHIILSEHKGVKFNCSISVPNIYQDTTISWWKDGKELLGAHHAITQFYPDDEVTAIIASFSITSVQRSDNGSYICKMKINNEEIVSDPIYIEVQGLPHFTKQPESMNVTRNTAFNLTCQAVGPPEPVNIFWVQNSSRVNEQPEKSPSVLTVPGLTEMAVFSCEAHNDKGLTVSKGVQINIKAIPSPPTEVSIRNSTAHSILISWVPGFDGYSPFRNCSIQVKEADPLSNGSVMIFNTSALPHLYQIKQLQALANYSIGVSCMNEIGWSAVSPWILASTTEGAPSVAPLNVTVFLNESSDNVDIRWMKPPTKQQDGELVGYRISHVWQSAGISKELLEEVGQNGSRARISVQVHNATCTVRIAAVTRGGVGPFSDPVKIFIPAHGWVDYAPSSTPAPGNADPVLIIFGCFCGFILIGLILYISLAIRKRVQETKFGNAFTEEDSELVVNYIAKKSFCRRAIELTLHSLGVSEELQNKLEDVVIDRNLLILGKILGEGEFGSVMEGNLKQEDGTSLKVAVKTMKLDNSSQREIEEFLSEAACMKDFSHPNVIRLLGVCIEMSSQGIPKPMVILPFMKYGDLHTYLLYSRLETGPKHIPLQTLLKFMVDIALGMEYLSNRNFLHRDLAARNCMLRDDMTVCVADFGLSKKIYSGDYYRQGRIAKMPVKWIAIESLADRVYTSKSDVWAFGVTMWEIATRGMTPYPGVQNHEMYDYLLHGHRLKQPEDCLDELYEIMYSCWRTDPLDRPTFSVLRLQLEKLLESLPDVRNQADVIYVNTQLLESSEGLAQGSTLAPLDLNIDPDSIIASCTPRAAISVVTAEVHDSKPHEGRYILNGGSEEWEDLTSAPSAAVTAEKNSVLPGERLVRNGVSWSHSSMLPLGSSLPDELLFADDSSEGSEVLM
In words: PAKT HTRF-HUVEC assay (pAkt Ser473 HTRF after anti-human MerTK-XL stimulation). In kind it is cell-based. The settings on record: HUVEC cells, 1 hour compound, stimulated with anti-human MerTK-XL 1 ug/mL for 10 minutes, read-out: inhibition of MerTK. In outline:
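HUVECs starved 3-4 h in basal medium, preincubated with compound 1 h at 37° C, then stimulated 10 min with cross-linked anti-human MerTK antibody (final 1 ug/mL). Lysates read for pAkt (Ser473) by HTRF; EC50 from curve fitting.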
On the technique in general: In TR-FRET formats the signal depends on donor and acceptor labels being close together.

With `CN1CCN(c2ccc3c(c2)c(=O)n([C@H]2CC[C@H](O)CC2)c2nc(NCCC4CC4)ncc32)CC1` [Compound 96, trans-3-((2-Cyclopropylethyl)amino)-5-(4-hydroxycyclohexyl)-8-(4-methylpiperazin-1-yl)pyrimido[4,5-c]isoquinolin-6(5H)-one], the EC50 is 41.4 nM.

With `CCOC(=O)C1CCN(Cc2ccc3c(c2)c(=O)n(C2CCC(O)CC2)c2nc(NCC4CC4)ncc32)CC1` (stereo not shown) [Compound 161], the EC50 came out at 25.9 nM.

In the case of `CN1CCN(Cc2ccc3c(c2)c(=O)n([C@H]2CC[C@H](OC(N)=O)CC2)c2nc(NCC4CC4)ncc32)CC1` [Compound 59, trans-4-(3-((Cyclopropylmethyl)amino)-8-((4-methylpiperazin-1-yl)methyl)-6-oxopyrimido[4,5-c]isoquinolin-5(6H)-yl)cyclohexyl carbamate], the EC50 stood at 292 nM.

For the compound `O=c1c2ccccc2c2cnc(NCCC3CC3)nc2n1[C@H]1CC[C@H](O)CC1` [Compound 120, trans-3-((2-Cyclopropylethyl)amino)-5-(4-hydroxycyclohexyl)pyrimido [4,5-c]isoquinolin-6(5H)-one], the EC50 amounted to 352 nM.

For `O=c1c2cc(N3CCNCC3)ccc2c2cnc(NCC3CC3)nc2n1[C@H]1CC[C@H](O)CC1` [Compound 174], the EC50 is 170 nM.

`CC(C)N1CCN(Cc2ccc3c(c2)c(=O)n([C@H]2CC[C@H](O)CC2)c2nc(NCC4CC4)ncc32)CC1` [Compound 30, trans-3-((Cyclopropylmethyl)amino)-5-(4-hydroxycyclohexyl)-8-((4-isopropylpiperazin-1-yl)methyl)pyrimido[4,5-c]isoquinolin-6(5H)-one]: the EC50 was 18.3 nM.

Turning to `N[C@H]1CC[C@H](n2c(=O)c3cc(Cl)ccc3c3cnc(NCC4CC4)nc32)CC1` [Compound 205], the EC50 was determined as 293 nM.

For `O=c1c2cc(CN3CCN(c4ccncc4)CC3)ccc2c2cnc(NCC3CC3)nc2n1[C@H]1CC[C@H](O)CC1` [Compound 194], the EC50 worked out at 33.6 nM.

As for `CCCCNc1ncc2c3ccc(N4CCn5ncnc5C4)cc3c(=O)n([C@H]3CC[C@H](O)CC3)c2n1` [Compound 80, trans-3-(Butylamino)-8-(5,6-dihydro-[1,2,4]triazolo[1,5-a]pyrazin-7(8H)-yl)-5-(4-hydroxycyclohexyl)pyrimido [4,5-c]isoquinolin-6(5H)-one], the EC50 is 34.5 nM.

With `O=c1c2cc(N3CCN(CC(F)(F)F)CC3)ccc2c2cnc(NCC3CC3)nc2n1[C@H]1CC[C@H](O)CC1` [Compound 104, trans-3-((Cyclopropylmethyl)amino)-5-(4-hydroxycyclohexyl)-8-(4-(2,2,2-trifluoroethyl)piperazin-1-yl)pyrimido[4,5-c]isoquinolin-6(5H)-one], the EC50 turned out to be 289 nM.

On to `O=c1c2cc(N3CC4(COC4)C3)ccc2c2cnc(NC3CC(F)(F)C3)nc2n1[C@H]1CC[C@H](O)CC1` [Compound 67, trans-3-((3,3-difluorocyclobutyl)amino)-5-(4-hydroxycyclohexyl)-8-(2-oxa-6-azaspiro[3.3]heptan-6-yl)pyrimido[4,5-c]isoquinolin-6(5H)-one], for which the EC50 was found to be 8030 nM.

With `O=c1c2cc(CN3CC[S+]([O-])CC3)ccc2c2cnc(NCC3CC3)nc2n1[C@H]1CC[C@H](O)CC1` [Compound 165], the EC50 was 401 nM.

With `CC1(O)CCC(n2c(=O)c3cc(CN4CCOCC4)ccc3c3cnc(NCC4CC4)nc32)CC1` (stereo not shown) [Compound 156], the EC50 was found to be 116 nM.

With `CCCCNc1ncc2c3ccc(N4CCNCC4)cc3c(=O)n([C@H]3CC[C@H](O)CC3)c2n1` [Compound 83, trans-3-(Butylamino)-5-(4-hydroxycyclohexyl)-8-(piperazin-1-yl)pyrimido[4,5-c]isoquinolin-6(5H)-one], the EC50 was determined as 31.8 nM.

For `CCCCNc1ncc2c3ccc(N4CCN(C5COC5)CC4)cc3c(=O)n([C@H]3CC[C@H](O)CC3)c2n1` [Compound 77, trans-3-(Butylamino)-5-(4-hydroxycyclohexyl)-8-(4-(oxetan-3-yl)piperazin-1-yl)pyrimido[4,5-c]isoquinolin-6(5H)-one], the EC50 came out at 21.9 nM.

As for `CCCCNc1ncc2c3ccc(CN4CCN(C)CC4)cc3c(=O)n([C@H]3CC[C@H](O)CC3)c2n1` [Compound 3, trans-3-(Butylamino)-5-(4-hydroxycyclohexyl)-8-((4-methylpiperazin-1-yl)methyl)pyrimido[4,5-c]isoquinolin-6(5H)-one], the EC50 was determined as 28.8 nM.

On to `O=c1c2ccccc2c2cnc(NCC3CC3)nc2n1[C@H]1CC[C@H](O)CC1` [Compound 114, trans-3-((Cyclopropylmethyl)amino)-5-(4-hydroxycyclohexyl)pyrimido [4,5-c]isoquinolin-6(5H)-one], for which the EC50 was determined as 743 nM.

Regarding `CC(C)(C)N1CCN(Cc2ccc3c(c2)c(=O)n([C@H]2CC[C@H](O)CC2)c2nc(NC4CC(F)(F)C4)ncc32)CC1` [Compound 199, trans-8-((4-(tert-Butyl)piperazin-1-yl)methyl)-3-((3,3-difluorocyclobutyl)amino)-5-(4-hydroxycyclohexyl)pyrimido[4,5-c]isoquinolin-6(5H)-one], the EC50 is 10.8 nM.

With `CCCCNc1ncc2c3ccc(CN4CCN(C)CC4)cc3c(=O)n([C@H]3CC[C@H](C(=O)NC)CC3)c2n1` [Compound 138, trans-4-(3-(Butylamino)-8-((4-methylpiperazin-1-yl)methyl)-6-oxopyrimido[4,5-c]isoquinolin-5(6H)-yl)-N-methylcyclohexane-1-carboxamide], the EC50 amounted to 68.8 nM.

Consider `C[C@]1(O)CC[C@H](n2c(=O)c3cc(CN4CCN(c5ccncc5)CC4)ccc3c3cnc(NCC4CC4)nc32)CC1` [Compound 224, trans-3-((Cyclopropylmethyl)amino)-5-(4-hydroxy-4-methylcyclohexyl)-8-((4-(pyridin-4-yl)piperazin-1-yl)methyl)pyrimido[4,5-c]isoquinolin-6(5H)-one], for which the EC50 is 28.3 nM.

As to `CCCCNc1ncc2c3ccc(N4CCN(C)CC4)cc3c(=O)n([C@H]3CC[C@@H](O)CC3)c2n1` [Compound 63, cis-3-(Butylamino)-5-(4-hydroxycyclohexyl)-8-(4-methylpiperazin-1-yl)pyrimido[4,5-c]isoquinolin-6(5H)-one], the EC50 worked out at 138 nM.

On to `CN1CCN(Cc2ccc3c(c2)c(=O)n(C2CCC(C)(O)CC2)c2nc(NCC4CC4)ncc32)CC1` (stereo not drawn) [Compound 28, trans-3-((Cyclopropylmethyl)amino)-5-(4-hydroxy-4-methylcyclohexyl)-8-((4-methylpiperazin-1-yl)methyl)pyrimido[4,5-c]isoquinolin-6(5H)-one], for which the EC50 is 36.6 nM.

Take `O=c1c2cc(CN3CCN4CCC[C@H]4C3)ccc2c2cnc(NCC3CC3)nc2n1[C@H]1CC[C@H](O)CC1` [Compound 157]: the EC50 was found to be 49.7 nM.

As for `CCCCNc1ncc2c3ccc(N4CCN(C)CC4)cc3c(=O)n(CC3CCC(N)CC3)c2n1` (stereo not shown) [Compound 65, 5-((4-Aminocyclohexyl)methyl)-3-(butylamino)-8-(4-methylpiperazin-1-yl)pyrimido[4,5-c]isoquinolin-6(5H)-one], the EC50 was determined as 78.3 nM.

With `O=c1c2cc(OCCCN3CCOCC3)ccc2c2cnc(NCC3CC3)nc2n1[C@H]1CC[C@H](O)CC1` [Compound 208, trans-3-((Cyclopropylmethyl)amino)-5-(4-hydroxycyclohexyl)-8-(3-morpholinopropoxy)pyrimido[4,5-c]isoquinolin-6(5H)-one], the EC50 came out at 415 nM.

`CCCCNc1ncc2c3ccc(N4CCN(C)[C@H](C)C4)cc3c(=O)n([C@H]3CC[C@H](O)CC3)c2n1` [Compound 90, trans-3-(Butylamino)-8-((R)-3,4-dimethylpiperazin-1-yl)-5-(4-hydroxycyclohexyl)pyrimido [4,5-c]isoquinolin-6(5H)-one]: the EC50 amounted to 13.1 nM.

`O=c1c2cc(N3CCn4ncnc4C3)ccc2c2cnc(NCC3CC3)nc2n1[C@H]1CC[C@H](O)CC1` [Compound 101, trans-3-((Cyclopropylmethyl)amino)-8-(5,6-dihydro-[1,2,4]triazolo[1,5-a]pyrazin-7(8H)-yl)-5-(4-hydroxycyclohexyl)pyrimido [4,5-c]isoquinolin-6(5H)-one]: the EC50 amounted to 296 nM.

Turning to `CN1CCN(Cc2ccc3c(c2)c(=O)n([C@H]2CC[C@H](O)CC2)c2nc(NCC4CC4)ncc32)CC1` [Compound 16, trans-3-((Cyclopropylmethyl)amino)-5-(4-hydroxycyclohexyl)-8-((4-methylpiperazin-1-yl)methyl)pyrimido[4,5-c]isoquinolin-6(5H)-one], the EC50 is 63.9 nM.
